Experimental data from patent US20220331348A1, “METHOD OF PREPARING PENTACYCLIC TRITERPENOID SAPONINS AND DRUG COMPOSITION” (CHINA PHARMACEUTICAL UNIVERSITY, priority 2019, published 2022).

Tests used:
[1] = tested on: ulcerative colitis model mice induced by DSS; assay: Dextran sulphate sodium salt (DSS) induced ulcerative colitis model mice; assay type: in vivo, mouse; details: DSS-induced mice; dose not given; vs model group
Experimental: C57BL/6 male mice with 6-8 weeks old were selected; a control group was fed with purified water; and a model group, a treatment group and a positive control group were fed with purified water containing 2% dextran sulphate sodium salt (DSS) (36000-50000 M.Wt) for 7 days and then with the purified water for 3 days, and drug intervention was conducted at the same time. The mice in the control group and the model group were orally administered with carboxymethyl cellulose sodium as a placebo, the mice in the treatment group were orally administered with the ziyuglycoside II (purchased from Shanghai Boka Chemistry Technology Co., Ltd) (with a dosage of 5 mg/kg), and the mice in the positive control group were orally administered with 5-aminosalicylic acid as a clinical drug (5-ASA, purchased from Shanghai Sangon Biological Engineering Co., Ltd) (with a dosage of 100 mg/kg). In the administration process, weight changes, feces characters and hematochezia conditions of the mice were observed and recorded every day and were scored, and disease activity indexes were calculated (Disease activity index, DAI).
A scoring rule and a calculation method were as follows: DAT=(weight score+diarrhea score+occult blood score)/3, wherein weight score: 0 (weight gained or unchanged), 1 (weight lost by 1-5%), 2 (weight lost by 6-10%), 3 (weight lost by 11-15%), 4 (weight lost by 15% or above); diarrhea score: 0 (normal feces), 2 (soft feces), 4 (feces sticking anuses or diarrhea); and occult blood score: 0 (negative occult blood), 2 (positive occult blood), and 4 (visible bleeding). Comparing differences in DAI of various groups, it can be known that the ziyuglycoside II has significant prevention and treatment effects on ulcerative colitis of the mice modeled by the dextran sulphate sodium salt (DSS).
The above mice were sacrificed by cervical dislocation at day 11, colon tissues were harvested, lengths of the colon tissues were measured for statistical summary, and differences in colon length of various groups were compared, from which, the ziyuglycoside II has significant prevention and treatment effect on the ulcerative colitis model mice.
Middle segments, with lengths of about 1 cm, of the colon tissues of the above mice were selected, soaked in a formalin solution for fixing overnight, embedded with paraffin and sliced, and the slices were subjected to HE staining. […] Particularly, compared with the positive drug group, the ziyuglycoside II has the advantage of maintaining a thickness of a muscular layer.
10 mg of proximal rectum segments of the colon tissues of the above mice were selected, PBS was added for homogenization, and centrifugation was conducted for taking a supernate. The supernate was subjected to ELISA detection, and protein quantification was conducted for inflammatory factors TNF-α and IL-lb.
10 mg of colon tissues of the above mice were selected for detection of ROS therein.
When the ulcerative colitis occurs, the inflammatory factors may destruct tight junction between intestinal tracts, and destruction of the tight junction enables functions of mucosal barriers to be lost and accelerates development of the diseases. 5 mg of colon tissues of the above mice were selected for qPCR analysis. […] This hints that the ziyuglycoside II further has the efficacy of increasing the expression level of the tight junction and then protecting a structure of each colon. […] Therefore, the ziyuglycoside II is expected to be useful for preparing the drug for preventing or treating the inflammatory bowel diseases such as the ulcerative colitis.

[2] = tested on: human ADPKD cyst lining epithelial cell lines WT9-12; assay: Proliferation of polycystic kidney epithelial cells (CCK-8 method); assay type: cell-based; details: polycystic kidney epithelial cells, 10 μM, 48 h, CCK-8, n = 6; for inhibition at 10 µM: Homo sapiens, Epithelial cell, read-out: Inhibition rate (%)
Description: Cell and reagent: complete media for human ADPKD cyst lining epithelial cell lines WT9-12 and DMEM were purchased from ATCC Company; fetal calf serums were purchased from Gibco Company; Cell Counting Kit-8 was purchased from DOJINDO Company; Click-iT® EdU Imaging Kits were purchased from Invitrogen™ Thermo Fisher Scientific Company; Caspase -3/CPP32 Colorimetric Assay Kit was purchased from BioVision Company; Annexin V/PI double-staining flow type cell apoptosis detection kits were purchased from Bender Company; and anti-Phospho-(AMPKa, mTOR, p70S6K, 4E-BP1) antibodies were purchased from Cell Signaling Technology Company.
The influence of 2-DG on proliferation of the polycystic kidney epithelial cells was detected with a CCK-8 method: a DMEM complete medium containing 10% fetal calf serum (FBS) was prepared. The polycystic kidney epithelial cells were cultured in an incubator with 5% CO2 at 37° C. after being recovered, a solution was replaced every other day, the polycystic kidney epithelial cells were passaged every 2-3 days, and the cells were in a growing state of adhering to the wall. After trypsin enzyme digestion, cells were resuspended by using a complete medium, the concentration of a polycystic kidney epithelial cell suspension was regulated to be 3×10^7/L, the polycystic kidney epithelial cell suspension was inoculated to 96-well plate by […] per well for culture for 24 h, and the suspension was replaced by a culture medium containing 0.1% FBS for synchronization for 24 h.

[3] = tested on: TNBS modeled Crohn's disease model mice; assay: 2,4,6-trinitrobenzene sulfonic acid (TNBS) modeled Crohn's disease model mice; assay type: in vivo, mouse; details: dose not given; for expression level of inflammatory factor IL-1β / expression level of inflammatory factor TNF-α: vs model group
Experimental: C57BL/6 male mice with 6-8 weeks old were selected and randomly divided into a control group, a mode group, a treatment group and a positive control group. Expect for the control group, after the mice in the rest groups anesthetized with isoflurane, hoses were carefully inserted into colons of the mice from anuses, and […] of 1.5% 2,4,6-trinitrobenzene sulfonic acid (TNBS) was slowly injected. Before the hoses were pulled out, the mice were placed upside down for 1 min. First intragastric administration was conducted at the day of enema treatment, the mice in the control group and the model group were orally administered with carboxymethyl cellulose sodium as a placebo, the mice in the treatment group were orally administered with the ziyuglycoside II (purchased from Shanghai Boka Chemistry Technology Co., Ltd) (with a dosage of 5 mg/kg), and the mice in the positive drug group were orally administered with 5-aminosalicylic acid as a clinical drug (5-ASA, purchased from Shanghai Sangon Biological Engineering Co., Ltd) (with a dosage of 100 mg/kg). Administration was continuously conducted for 7 days. In the administration process, the states of the mice were observed every day, and weight changes of the mice were recorded.
Differences in weight change of the mice in various groups were compared, from which, ziyuglycoside II has the treatment effect on the 2, 4, 6-trinitrobenzene sulfonic acid (TNBS) modeled Crohn's disease model mice.
The above mice were sacrificed by cervical dislocation at day 8, colon tissues were harvested, lengths of the colon tissues were measured for statistical summary, and differences in colon length of various groups were compared, from which, the ziyuglycoside II has significant treatment effect on the Crohn's disease model mice. […] 10 mg of proximal rectum segments of the colon tissues of the above mice were selected, PBS was added for homogenization, and centrifugation was conducted for taking a supernate. The supernate was subjected to ELISA detection, and protein quantification was conducted for inflammatory factors TNF- and IL-1. […] Myeloperoxidase (MPO) is an enzyme specific to neutrophils, and the amount of the neutrophils in the intestinal tracts may be reflected by detecting the MPO level. 5 mg of proximal rectum segments of the colon tissues of the above mice were selected, PBS was added for homogenization, and the content of the MPO in a homogenate was detected with a MPO kit (purchased from Nanjing Jiancheng Bioengineering Institute). […] Therefore, the ziyuglycoside II is expected to be useful for preparing the drug for preventing or treating the inflammatory bowel diseases such as the Crohn's disease.

Row | SMILES | DAI scores of the treatment group [1] | inhibition at 10 µM [2] [%] | colon length of the treatment group compared with the control group [3] | expression level of inflammatory factor IL-1β [3] | expression level of inflammatory factor TNF-α [3] | Inhibition rate (%) [2] [%]
1 | C[C@@H]1CC[C@]2(C(=O)O[C@@H]3O[C@H](CO)[C@@H](O)[C@H](O)[C@H]3O)CC[C@]3(C)C(=CC[C@@H]4[C@@]5(C)CC[C@H](O[C@@H]6OC[C@H](O)[C@H](O)[C@H]6O)C(C)(C)[C@@H]5CC[C@]43C)[C@@H]2[C@]1(C)O [(XII), ziyuglycoside I] | obviously lower than those of the model group | 69.2 ± 1.7 | nearly no difference | significantly lower than those of the model group | significantly lower than those of the model group | –
2 | CC1(C)CC[C@]2(C(=O)O[C@@H]3O[C@H](CO)[C@@H](O)[C@H](O)[C@H]3O)CC[C@]3(C)C(=CC[C@@H]4[C@@]5(C)CC[C@H](O[C@@H]6O[C@H](C(=O)O)[C@@H](O)[C@H](O)[C@H]6O[C@@H]6O[C@H](CO)[C@@H](O)[C@H](O)[C@H]6O)C(C)(C)[C@@H]5CC[C@]43C)[C@@H]2C1 [(I), ginsenoside Ro] | obviously lower than those of the model group | 74.4 ± 2.3 | nearly no difference | significantly lower than those of the model group | significantly lower than those of the model group | –
3 | C[C@@H]1O[C@@H](O[C@H]2[C@H](O[C@H]3CC[C@@]4(C)[C@@H](CC[C@]5(C)[C@@H]4CC=C4[C@@H]6CC(C)(C)CC[C@]6(C(=O)O[C@@H]6O[C@H](CO[C@@H]7O[C@H](CO)[C@@H](O[C@@H]8O[C@@H](C)[C@H](O)[C@@H](O)[C@H]8O)[C@H](O)[C@H]7O)[C@@H](O)[C@H](O)[C@H]6O)CC[C@]45C)[C@]3(C)CO)OC[C@H](O)[C@@H]2O)[C@H](O)[C@H](O)[C@H]1O [(XI), hederacoside C] | obviously lower than those of the model group | – | nearly no difference | significantly lower than those of the model group | significantly lower than those of the model group | 64.4 ± 2.6
4 | C[C@@H]1O[C@@H](O[C@H]2[C@H](O[C@H]3CC[C@@]4(C)[C@@H](CC[C@]5(C)[C@@H]4CC=C4[C@@H]6CC(C)(C)CC[C@]6(C(=O)O)CC[C@]45C)[C@]3(C)CO)OC[C@H](O)[C@@H]2O)[C@H](O)[C@H](O)[C@H]1O [(X), α-hederin] | obviously lower than those of the model group | 80.5 ± 3.2 | nearly no difference | significantly lower than those of the model group | significantly lower than those of the model group | –
5 | C[C@H]1O[C@@H](O[C@H]2CC[C@@]3(C)[C@@H](CC[C@]4(C)[C@@H]3C=C[C@]35OC[C@@]6(CCC(C)(C)C[C@H]63)[C@@H](O)C[C@]54C)[C@]2(C)CO)[C@H](O)[C@@H](O[C@@H]2O[C@H](CO)[C@@H](O)[C@H](O)[C@H]2O)[C@H]1O [(VII), saikosaponin A] | obviously lower than those of the model group | – | nearly no difference | significantly lower than those of the model group | significantly lower than those of the model group | –
6 | C[C@H]1O[C@@H](O[C@H]2CC[C@@]3(C)[C@@H](CC[C@]4(C)[C@@H]3C=C[C@]35OC[C@@]6(CCC(C)(C)C[C@H]63)[C@H](O)C[C@]54C)[C@]2(C)CO)[C@H](O)[C@@H](O[C@@H]2O[C@H](CO)[C@@H](O)[C@H](O)[C@H]2O)[C@H]1O [(VIII), saikosaponin D] | obviously lower than those of the model group | – | nearly no difference | significantly lower than those of the model group | significantly lower than those of the model group | –
